Results on 38 molecules are retold here after patent publication US20110105496A1, “Methods For The Treatment Of Myosin Heavy Chain-Mediated Conditions Using 4,7-Dihydrothieno[2,3-B]Pyridine Compounds” (priority 2005, published 2011).

SMILES strings stand for the structures. Where two headings read alike, the source gives them in different places.

This assay relates to alpha-MyHC. In words: alpha-MyHC cytoblot process in neonatal rat ventricular myocytes (NRVM). It is filed as cell-based.
Where [1] appears, read: Table 2 (esters), NRVM, 72 hours, alpha-MyHC cytoblot.
The mark [2] stands for this setting: Table 2 (esters), NRVM, 72 hours, maximum of dose response fit.
Setting [3] is: Table 4, NRVM, 72 hours, maximum of dose response fit.

The EC50 is the concentration needed to bring the measured effect to its halfway point. The low end stands for an effect from little substance, the high end for a need for much substance. Under setting [1], `CCOC(=O)C1=C(CC)Nc2sc(C(=O)c3ccc(Cl)c(Cl)c3)c(N)c2C1c1ccccc1F` (stereo not drawn) [Compound 142] showed an EC50 of 6.78 nM. Besides, under setting [2], the “Max Plateau” value is on record as 194.32 per cent fraction of low control.
For `CCC1=C(C(=O)OC)C(c2ccccc2)c2c(sc(C(=O)c3cccc(C#N)c3)c2N)N1` (stereo not drawn) [Compound 143] the same measures were 5.24 nM and 290.53 per cent fraction of low control.
For `COC(=O)C1=C(C2CC2)Nc2sc(C(=O)c3ccc(Cl)c(Cl)c3)c(N)c2C1c1ccccc1F` (stereo not drawn) [Compound 144] the same measures were 63.3 nM and 187.17 per cent fraction of low control.
Under setting [1], `CCOC(=O)C1=C(CC)Nc2sc(C(=O)c3ccc(Cl)cc3Cl)c(N)c2C1c1ccccc1` (stereo not drawn) [Compound 145] returned an EC50 of 123 nM. The “Max Plateau” value under setting [2] is 224.48 per cent fraction of low control.
Under setting [1], `CCOC(=O)C1=C(CC)Nc2sc(C(=O)c3cc(Cl)ccc3Cl)c(N)c2C1c1ccccc1` (stereo not drawn) [Compound 146] came in with an EC50 of 4.03 nM. Besides, the “Max Plateau” value under setting [2] is on record as 213.49 per cent fraction of low control.
`CCOC(=O)C1=C(CC)Nc2sc(C(=O)c3cc(C(F)(F)F)cc(C(F)(F)F)c3)c(N)c2C1c1ccccc1` (stereo not drawn) [Compound 149] returned an EC50 under setting [1] of 11.1 nM. For the same molecule, under setting [2], the “Max Plateau” value is 207.18 per cent fraction of low control.
The like results for `CCC1=C(C(=O)OC)C(c2ccccc2F)c2c(sc(C(=O)c3ccc(Cl)c(C)c3)c2N)N1` (stereo not drawn) [Compound 150] were, in that order, 21.4 nM and 228.28 per cent fraction of low control.
Under setting [1], `CCOC(=O)C1=C(CC)Nc2sc(C(=O)c3cc(F)cc(F)c3)c(N)c2C1c1ccccc1` (stereo not drawn) [Compound 151] yielded an EC50 of 10.1 nM. Under setting [2], the “Max Plateau” value was 273.61 per cent fraction of low control.
Take `CCOC(=O)C1=C(CC)Nc2sc(C(=O)c3cccc(C(=O)O)c3)c(N)c2C1c1ccccc1` (stereo not drawn) [Compound 152]: under setting [1], the EC50 was found to be 2910 nM. Further, the “Max Plateau” value under setting [2] is given as 238.69 per cent fraction of low control.
Under setting [1], `CCC1=C(C(=O)OC)C(c2ccc(F)cc2F)c2c(sc(C(=O)c3ccc(Cl)c(Cl)c3)c2N)N1` (stereo not drawn) [Compound 153] gave an EC50 of 15.3 nM. The “Max Plateau” value under setting [2] is listed as 234.66 per cent fraction of low control.
Consider `COC(=O)C1=C(CCc2ccccc2)Nc2sc(C(=O)c3ccc(Cl)c(Cl)c3)c(N)c2C1c1ccccc1F` (stereo not drawn) [Compound 154], for which a half-maximal effect under setting [1] (EC50) was put at 303 nM. Also, the “Max Plateau” value under setting [2] is on record as 125.87 per cent fraction of low control.
In the case of `CCC1=C(C(=O)OC)C(c2cccc(Cl)c2F)c2c(sc(C(=O)c3ccc(Cl)c(Cl)c3)c2N)N1` (stereo not drawn) [Compound 155], it took 19.3 nM to reach a half-maximal effect under setting [1] (EC50). Also, the “Max Plateau” value under setting [2] was 224.86 per cent fraction of low control.
The molecule `CCC1=C(C(=O)OC)C(c2cccc(Cl)c2F)c2c(sc(C(=O)c3cccc([N+](=O)[O-])c3)c2N)N1` (stereo not drawn) [Compound 156] had an EC50 under setting [1] of 3.69 nM. For the same molecule, the “Max Plateau” value under setting [2] is recorded as 243.78 per cent fraction of low control.
The like results for `CCC1=C(C(=O)OC2CCCCC2)C(c2ccccc2)c2c(sc(C(=O)c3ccc(Cl)c(Cl)c3)c2N)N1` (stereo not drawn) [Compound 160] were, in that order, 75.4 nM and 186.95 per cent fraction of low control.
On to `CCC1=C(C(=O)OCC(C)C)C(c2ccccc2)c2c(sc(C(=O)c3ccc(Cl)c(Cl)c3)c2N)N1` (stereo not drawn) [Compound 161], for which the response under setting [1] was half-maximal at 35.4 nM (EC50). Besides, under setting [2], the “Max Plateau” value is reported as 232.35 per cent fraction of low control.
`CCC1=C(C(=O)OC)C(c2ccccc2F)c2c(sc(C(=O)c3cccc(C#N)c3)c2N)N1` (stereo not drawn) [Compound 164] yielded an EC50 under setting [1] of 2.83 nM. In addition, under setting [2], the “Max Plateau” value is 279.90 per cent fraction of low control.
Under setting [1], `CCC1=C(C(=O)OC)C(c2ccccc2F)c2c(sc(C(=O)c3cccc(Cl)c3)c2N)N1` (stereo not drawn) [Compound 167] registered an EC50 of 111000 nM. Besides, under setting [2], the “Max Plateau” value was 255.95 per cent fraction of low control.
As for `CCOC(=O)C1=C(CC)Nc2sc(C(=O)c3ccc(Cl)c(Cl)c3)c(N)c2C1c1ccncc1F` (stereo not drawn) [Compound 168], a half-maximal effect under setting [1] (EC50) was put at 7.12 nM. The “Max Plateau” value under setting [2] was 239.64 per cent fraction of low control.
`CCOC(=O)C1=C(CC)Nc2sc(C(=O)c3ccc(Cl)c(Cl)c3)c(N)c2C1c1ccncc1Cl` (stereo not drawn) [Compound 169] came in with an EC50 under setting [1] of 4.95 nM. For the same molecule, under setting [2], the “Max Plateau” value is listed as 261.04 per cent fraction of low control.
In the case of `CCC1=C(C(=O)OC)C(c2cc(F)cc(F)c2)c2c(sc(C(=O)c3ccc(F)c(F)c3)c2N)N1` (stereo not drawn) [Compound 170], under setting [1], the EC50 worked out at 1.89 nM. For the same molecule, the “Max Plateau” value under setting [2] is 262.16 per cent fraction of low control.
For `CCC1=C(C(=O)OC)C(c2cc(F)cc(F)c2)c2c(sc(C(=O)c3ccc(Cl)c(Cl)c3)c2N)N1` (stereo not drawn) [Compound 171] the same measures were 0.828 nM and 296.79 per cent fraction of low control.
The like results for `CCC1=C(C(=O)OC)C(c2cc(F)cc(F)c2)c2c(sc(C(=O)c3ccccc3)c2N)N1` (stereo not drawn) [Compound 172] were, in that order, 0.478 nM and 304.08 per cent fraction of low control.
On to `CCOC(=O)C1=C(CC)Nc2sc(C(=O)c3ccc(F)c(F)c3)c(N)c2C1c1ccncc1F` (stereo not drawn) [Compound 173], for which, under setting [2], the “Max Plateau” value is 257.43 per cent fraction of low control.
Still for that read-out and setting: in the case of `CCOC(=O)C1=C(CC)Nc2sc(C(=O)c3cccnc3)c(N)c2C1c1ccncc1F` (stereo not drawn) [Compound 174, 3-amino-6-ethyl-4-(3 fluoro-pyridin-4-yl)-2-(pyridine-3-carbonyl)-4,7 dihydro-thieno[2,3-b]pyridine-5-carboxylic acid ethyl ester] it was 263.57 per cent fraction of low control.
`CCC1=C(C(=O)OCC(C)OC)C(c2ccccc2F)c2c(sc(C(=O)c3cccc(C#N)c3)c2N)N1` (stereo not drawn) [Compound 180]: under setting [1], the EC50 is 63.2 nM. For the same molecule, under setting [2], the “Max Plateau” value is on record as 279.68 ± 65.32 per cent fraction of low control.
`CCC1=C(C(=O)OC(C)COC)C(c2ccccc2F)c2c(sc(C(=O)c3cccc(Cl)c3)c2N)N1` (stereo not drawn) [Compound 181] gave an EC50 under setting [1] of 21 nM. The “Max Plateau” value under setting [2] is on record as 240.80 ± 29.53 per cent fraction of low control.
Molecule `CCC1=C(C(=O)OC(C)COC)C(c2ccccc2F)c2c(sc(C(=O)c3cccc(C#N)c3)c2N)N1` (stereo not drawn) [Compound 182] registered an EC50 under setting [1] of 60.9 nM. The “Max Plateau” value under setting [2] is listed as 251.54 ± 25.09 per cent fraction of low control.
On to `CCC1=C(C(=O)OCC(C)OC)C(c2ccccc2F)c2c(sc(C(=O)c3cccc(C#N)c3)c2N)N1` (stereo not drawn) [Compound 185], for which the EC50 under setting [1] turned out to be 1710 nM. In addition, the “Max Plateau” value under setting [2] was 172.89 ± 23.52 per cent fraction of low control.
For the molecule `CCC1=C(C(=O)OC(C)COC)C(c2ccccc2F)c2c(sc(C(=O)c3cccc(C#N)c3)c2N)N1` (stereo not drawn) [Compound 193], the midpoint of the response under setting [1], the EC50, lay at 77.6 nM. In addition, the “Max Plateau” value under setting [2] is 230.28 ± 6.46 per cent fraction of low control.
Consider `CCOC(=O)C1=C(C)Nc2sc(C(=O)c3cccc(Br)c3)c(N)c2C1(C)c1ccccc1` (stereo not drawn) [Compound 197], for which the 50% effective concentration (EC50) (Rattus norvegicus, Ventricular myocyte, Table 4, NRVM, 72 hours, alpha-MyHC cytoblot) was 792 nM. Besides, the Emax (Rattus norvegicus, Ventricular myocyte, Table 4, NRVM, 72 hours, maximum of dose response fit, read-out: Max Plateau) amounted to 160 ± 10.9%.
Turning to `CCOC(=O)C1=C(C)Nc2sc(C(=O)c3ccccc3)c(N)c2C1(C)c1ccccc1` (stereo not drawn) [Compound 206], the “Max Plateau” value under setting [3] was 169.32 ± 23.07 per cent fraction of low control.
As to `CC(=O)C1=C(C)Nc2sc(C(=O)c3ccc(Cl)c(Cl)c3)c(N)c2C1(C)c1cccc(F)c1` (stereo not drawn) [Compound 207, 1-[3-amino-2-(3,4 dichloro-benzoyl)-4-(3 fluoro-phenyl)-4,6-dimethyl-4,7 dihydro-thieno[2,3-b]pyridin-5-yl]-ethanone], the “Max Plateau” value under setting [3] is 148.73 ± 27.95 per cent fraction of low control.
As for `CC(=O)C1=C(C)N(C)c2sc(C(=O)c3ccccc3)c(N)c2C1c1ccccc1` (stereo not drawn) [Compound 208, 1-(3-amino-2-benzoyl-6,7 dimethyl-4-phenyl-4,7 dihydro-thieno[2,3-b]pyridin-5-yl)-ethanone], the “Max Plateau” value (Table 5 (R^4 substituted), NRVM, 72 hours, maximum of dose response fit) is 173.33 per cent fraction of low control.
For the molecule `CCC1=C(C(=O)OCCNC(=O)OC(C)(C)C)C(c2ccccc2F)c2c(sc(C(=O)c3ccc(Cl)c(Cl)c3)c2N)N1` (stereo not drawn) [Compound 222, Bac protected 3-amino-2-(3,4 dichloro-benzoyl)-4-(2 fluoro-phenyl)-6-methyl-4,7 dihydro-thieno[2,3-b]pyridine-5-carboxylic acid 2-amino-ethyl ester], a half-maximal effect (EC50) was put at 94.3 nM and the “Max Plateau” value worked out at 128.75 ± 8.38.
As for `N[C@@H](Cc1cc(I)c(Oc2ccc(O)c(I)c2)c(I)c1)C(=O)O` [Compound T3, 3,5,3′-triiodo-L-thyronine, reference compound], under “high control, 3 nM T3, low control (vehicle only) 2,000-3,000”, the “Relative Light Unit (RLU) values” is reported as 8,000-10,000 RLU.
`CC(=O)NCCOC(=O)C1=C(C)Nc2sc(C(=O)c3ccc(Cl)c(Cl)c3)c(N)c2C1c1ccccc1` (stereo not drawn) [compound 214]: the “Max Plateau” value was 100.00 ± 0.00.
In the case of `CCC1=C(C(=O)OCCN)C(c2ccccc2F)c2c(sc(C(=O)c3ccc(Cl)c(Cl)c3)c2N)N1` (stereo not drawn) [compound 221], the midpoint of the response, the EC50, lay at 22.7 nM and the “Max Plateau” value is reported as 156.50 ± 9.76.
The like results for `CC1=C(C(=O)OCCNC(=O)OC(C)(C)C)C(c2ccccc2F)c2c(sc(C(=O)c3ccc(Cl)c(Cl)c3)c2N)N1` (stereo not drawn) [compound 223] were, in that order, 10.8 nM and 213.11 ± 12.55.
